According to publication PMC6368403, “Identification of a bilirubin receptor that may mediate a component of cholestatic itch” (eLife, 2019):
“And” between values parts separate entries of the source, which are not always exact repeats. Equal entries are not always repeated. Blank lines part the entries; values can stand above or below the compound they belong to.

Legend:
[1] = test system: mice; assay: Cheek injection model: scratching bouts and wiping; type: in vivo, mouse; details: injected into cheek: 1.3 mM deoxycholic acid, 4 mM LPA
Procedure: All applicable behavioral tests were performed and analysed with the experimenter blind to genotype. […] There were no significant differences in itch between male and female mice. […] On the day before the experiment, animals were placed in the test chamber for 30 min before being subjected to a series of three mock injections with 5 min break periods in between. On the day of the experiment, animals were first allowed to acclimatize to the test chamber for 10 min before injection. […] A bout of scratching was defined as a continuous scratching movement with either hindpaw directed at the area of the injection site. In the cheek injection model, a wipe was defined as a single forepaw stroking the site of the injection. Use of both forepaws on the face or cheek was considered as grooming behavior. […] For H1R block, 30 mg/kg of cetirizine HCl (pH 7.4) was given intraperitoneally thirty minutes prior to injection of bilirubin. Licking behavior was quantified in seconds and identified as the licking of the toes or footpad of the hind paw site of injection that was neither preceded nor followed by licking of any other portion of the body.

[2] = test system: DRG neurons; assay: Ca2+ imaging of cultured DRG neurons; type: cell-based, mouse
Procedure: All cultured cells were maintained in DMEM supplemented with 10% FBS and 1% Penicillin/Streptomycin at 37°C, 5% CO2. […] Cells were imaged in calcium imaging buffer (CIB; 10 mM HEPES, 1.2 mM NaHCO3, 130 mM NaCl, 3 mM KCl, 2.5 mM CaCl2, 0.6 mM MgCl2, 20 mM glucose, and 20 mM sucrose at pH 7.4 and 290–300 mOsm). To monitor changes in intracellular [Ca^2+] ([Ca^2+]i), cells were loaded with either Fura 2-AM (HEK293 cells) or Fluo 4-AM (DRG neurons and mast cells) for 30 min in the dark at 37°C in CIB just prior to imaging. With Fura 2-AM, emission at 510 nm was monitored from excitation at both 340 nm and 380 nm. With Fluo 4-AM, emission at 520 nm was monitored from excitation at 488 nm. Cells were identified as responding if the intracellular [Ca^2+] rose by either 50% compared to baseline or 50% compared to the [Ca^2+]i change assayed during addition of 50 mM KCl (neurons only). Damaged, detached, high-baseline, and motion-activated cells were excluded from analysis.
DRGs were incubated with Fluo-4 AM 24 hr after dissociation (native genotype) or 48 hr after dissociation (virally transduced). Unless otherwise noted, cells were imaged for 20 seconds to establish a baseline before compounds were added. After 30 s, a 2 min wash was applied before addition of another substances. At the end of every imaging trial, 50 mM KCl was added as a positive control. […] For ruthenium red inhibitor experiments, neurons were incubated with 10 µM ruthenium red for 5 min prior to imaging. Percentage activated was determined as earlier described.
DRG neurons from all spinal levels were collected in cold DH10 media (90% Dulbecco’s modified Eagle’s medium (DMEM)/F-12, 10% FBS, penicillin (100 U/mL), and streptomycin (100 μg/mL)). DRGs were digested with a dispase (5 mg/ml)/collagenase type I (1 mg/ml) enzyme mixture at 37°C for 45 min. After trituration, cells were spun at 300 g and re-suspended in DH10 before being plated on glass coverslips coated with poly-D-lysine (0.5 mg/ml) and laminin (10 μg/ml, Invitrogen). DRGs were cultured with DH10 supplemented with 50 ng/mL NGF at 37°C.

[3] = molecular target: T1, MRGPRC11 (Mus musculus, UniProt Q8CIP3); assay: Ca2+ imaging and concentration-Ca2+ response in HEK293 cells expressing MRGPRC11; type: cell-based; details: three replicates, Fig 2-N
T1 construct: expressed in transfected cells
T1 sequence (Q8CIP3 1-322): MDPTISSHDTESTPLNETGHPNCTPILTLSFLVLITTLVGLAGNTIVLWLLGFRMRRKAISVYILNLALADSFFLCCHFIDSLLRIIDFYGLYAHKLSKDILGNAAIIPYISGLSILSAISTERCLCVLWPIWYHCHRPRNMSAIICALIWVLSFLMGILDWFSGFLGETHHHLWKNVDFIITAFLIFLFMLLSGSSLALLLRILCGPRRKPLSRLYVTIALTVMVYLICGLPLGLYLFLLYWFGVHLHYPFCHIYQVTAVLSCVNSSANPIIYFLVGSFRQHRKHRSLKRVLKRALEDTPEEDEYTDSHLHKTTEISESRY
Procedure: All cultured cells were maintained in DMEM supplemented with 10% FBS and 1% Penicillin/Streptomycin at 37°C, 5% CO2. All data included were generated from cells tested for mycoplasma and found to be negative. Cells were imaged in calcium imaging buffer (CIB; 10 mM HEPES, 1.2 mM NaHCO3, 130 mM NaCl, 3 mM KCl, 2.5 mM CaCl2, 0.6 mM MgCl2, 20 mM glucose, and 20 mM sucrose at pH 7.4 and 290–300 mOsm). To monitor changes in intracellular [Ca^2+] ([Ca^2+]i), cells were loaded with either Fura 2-AM (HEK293 cells) or Fluo 4-AM (DRG neurons and mast cells) for 30 min in the dark at 37°C in CIB just prior to imaging. With Fura 2-AM, emission at 510 nm was monitored from excitation at both 340 nm and 380 nm. With Fluo 4-AM, emission at 520 nm was monitored from excitation at 488 nm. Cells were identified as responding if the intracellular [Ca^2+] rose by either 50% compared to baseline or 50% compared to the [Ca^2+]i change assayed during addition of 50 mM KCl (neurons only). Damaged, detached, high-baseline, and motion-activated cells were excluded from analysis.
In initial screens, HEK293 cells stably expressing the murine G-protein alpha-subunit Gα15, a unique Gα protein that non-selectively couples a large variety of GPCRs to phospholipase C ^30, were plated on poly-D-lysine-coated coverslips and transiently transfected with constructs encoding the MRGRPR of interest. 12–24 hr later, cells were loaded with the Fura 2-AM. Unless otherwise specified, compounds were perfused into the imaging chamber for approximately thirty seconds after a baseline period was established. Response was then monitored at 5 s intervals for an additional 60 s.
HEK293 cells stably expressing either MRGPRA1, MRGPRX4, and MRGRPC11 were seeded in poly-D-lysine-coated 96-well plates at 10,000 cells/well. Cells were loaded with Fura 2–AM, washed twice, and maintained in CIB. Haem metabolites were freshly dissolved in DMSO in dim light and then diluted into a buffer comprised of 20 mM Tris and 150 mM NaCl at pH 8.8. Potential changes in pH were evaluated prior to each experiment. EC50 values were determined from dose-responses performed in triplicate, repeated 2–4 times. To determine potential antagonism by QWF against bilirubin, cells were treated with varying doses of QWF for 1 min in CIB prior to application of agonist.
HEK293 stable cell lines expressing GFP-tagged MRGPRA3, MRGPRC11, MRGPRD, MRGPRX1, and MRGPRX2 were generated in previously described reports ([Liu et al., 2009]; [Liu et al., 2012]; [McNeil et al., 2015]). Briefly, plasmids containing the receptor of interest were transfected into HEK cells using Lipofectamine 3000. After 3 days, cells were then selected using 0.5 mg/mL G418. After 3 weeks, monoclonal colonies were established and each the highest expressing clones were identified. For this study, Mrgpra1 and MRGPRX4 were inserted into pEGFP-N1 and transfected into HEK293 cells. MRGPR-positive cells were selected using 0.5 mg/mL G418 for three weeks, after which GFP-positive cells were sorted by FACS and monoclonally expanded. Two lines expressing similar levels of MRGPRA1 and MRGPRX4, as measured by GFP fluorescence, were selected for study.

[4] = molecular target: T1, MRGPRC11; assay: Microscale thermophoresis binding to MRGPRC11; details: mean of n=3, Fig 2-O
Procedure: Binding isotherms for MRGPRA1, MRGPRX4, and MRGRPC11 towards various ligands were determined by microscale thermophoresis with the NanoTemper monolith NT.115 instrument ([Duhr and Braun, 2006]). Ligands were pre-incubated with 10 µM of the GFP-tagged receptor of interest for 5 min at room temperature in binding buffer (20 mM Tris and 150 mM NaCl at pH 8.8). Receptors were crudely purified as a membrane fraction from cells stably expressing the receptor ([Vasavda et al., 2017]). Haem metabolites were freshly dissolved in 0.1 M NaOH in dim light and then diluted into assay buffer. Lyophilized BAM8-22 was dissolved in binding buffer. The pH of each ligand was evaluated prior to incubation with a receptor. Samples were loaded into NT.115 Hydrophobic-Treated Capillaries from NanoTemper. Microscale thermophoretic experiments were executed using 20% LED power and 15% MST power. KDs were calculated using the law of mass action with data from three independent experiments. Binding between bilirubin and receptors was evaluated purely thermophoretically, whereas binding between BAM8-22 and MRGPRC11 was evaluated by T-Jump. Samples with dramatic deviations in initial fluorescence were excluded.

Compound: C[C@H](CCC(=O)O)[C@H]1CC[C@H]2[C@@H]3CC[C@@H]4C[C@H](O)CC[C@]4(C)[C@H]3C[C@H](O)[C@]12C [deoxycholic acid, reference compound]
Scratching in WT versus Mrgpr-cluster KO animals [1]: equivalent degrees of scratching in WT and Mrgpr-cluster KO animals

Compound: N.N.N.N.N.N.N.N.N.N.N.N.N.N.[Cl-].[Cl-].[Cl-].[Cl-].[Cl-].[Cl-].[O-2].[O-2].[Ru+3].[Ru+3].[Ru+4] [ruthenium red, reference compound]
Effect on activation of sensory neurons by bilirubin ([2]; 10 µM ruthenium red, 50 µM bilirubin): prevented bilirubin from activating sensory neurons
Percent activated neurons by 50 µM bilirubin ([2]; WT neurons incubated with 10 µM ruthenium red (Fig 4G)): 0.73%

Ca2+ response (concentration-Ca2+ response curve), replicate values ([3]; [Ligand] 1.95313e-7 M): 1.675 (2×) and 1.799
Ca2+ response (concentration-Ca2+ response curve), replicate values ([3]; [Ligand] 3.90625e-7 M): 1.633 and 1.596 and 1.826
Ca2+ response (concentration-Ca2+ response curve), replicate values ([3]; [Ligand] 7.8125e-7 M): 1.6619 and 1.688 and 1.837
Ca2+ response (concentration-Ca2+ response curve), replicate values ([3]; [Ligand] 1.5625e-6 M): 1.91 and 1.851 and 1.839
Ca2+ response (concentration-Ca2+ response curve), replicate values ([3]; [Ligand] 3.125e-6 M): 2.508 and 1.957 and 1.844
Ca2+ response (concentration-Ca2+ response curve), replicate values ([3]; [Ligand] 6.25e-6 M): 2.578 and 3.436 and 2.313
Ca2+ response (concentration-Ca2+ response curve), replicate values ([3]; [Ligand] 1.25e-5 M): 4.631 and 2.839 and 3.888
Ca2+ response (concentration-Ca2+ response curve), replicate values ([3]; [Ligand] 2.5e-5 M): 3.332 and 3.664 and 3.933
microscale thermophoresis response (binding isotherm), mean ([4]; [Ligand] 4.88e-8 M): 0.2221
microscale thermophoresis response (binding isotherm), mean ([4]; [Ligand] 9.77e-8 M): 0.7996
microscale thermophoresis response (binding isotherm), mean ([4]; [Ligand] 1.953e-7 M): 0.1618
microscale thermophoresis response (binding isotherm), mean ([4]; [Ligand] 3.906e-7 M): -0.3098
microscale thermophoresis response (binding isotherm), mean ([4]; [Ligand] 7.813e-7 M): -0.7916
microscale thermophoresis response (binding isotherm), mean ([4]; [Ligand] 1.5625e-6 M): -0.6624
microscale thermophoresis response (binding isotherm), mean ([4]; [Ligand] 3.125e-6 M): -0.9001
microscale thermophoresis response (binding isotherm), mean ([4]; [Ligand] 6.25e-6 M): -0.5948
microscale thermophoresis response (binding isotherm), mean ([4]; [Ligand] 1.25e-5 M): -2.488
microscale thermophoresis response (binding isotherm), mean ([4]; [Ligand] 2.5e-5 M): -2.079
microscale thermophoresis response (binding isotherm), mean ([4]; [Ligand] 5e-5 M): -2.779
microscale thermophoresis response (binding isotherm), mean ([4]; [Ligand] 0.0001 M): -3.797
Compound: BAM8-22 [reference compound]

Compound: lysophosphatidic acid [LPA, reference compound]
Scratching in WT versus Mrgpr-cluster KO animals [1]: equivalent degrees of scratching in WT and Mrgpr-cluster KO animals
